Experimental data taken from US10597388B2, “Pyridazinone herbicides” (FMC CORPORATION, priority 2014, dated 2020).

Assays:
Assay in all cases: Test C greenhouse herbicide test, pre- and postemergence
Type in all cases: in vivo
[1] = tested on: wheat (winter wheat, Triticum aestivum)
Summary of the method: (§1)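 Percent-control ratings (0 none, 100 complete) came from visual comparison with controls held alongside in the greenhouse for 13–15 d. Treatments covered soil application at sowing and foliar application to young plants 2–18 cm tall.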

[2] = tested on: morningglory (Ipomoea coccinea)
Summary of the method: as §1

[3] = tested on: ryegrass, Italian (Italian ryegrass, Lolium multiflorum)
Summary of the method: as §1

[4] = tested on: pigweed (Amaranthus retroflexus)
Summary of the method: as §1

[5] = tested on: foxtail, giant (giant foxtail, Setaria faberii)
Summary of the method: as §1

[6] = tested on: ragweed (common ragweed, Ambrosia elatior)
Summary of the method: as §1

[7] = tested on: waterhemp (common waterhemp, Amaranthus rudis)
Summary of the method: as §1

[8] = tested on: galium (catchweed bedstraw, Galium aparine)
Summary of the method: as §1

[9] = tested on: oilseed rape (Brassica napus)
Summary of the method: as §1

[10] = tested on: barnyardgrass (Echinochloa crus-galli)
Summary of the method: as §1

[11] = tested on: blackgrass (Alopecurus myosuroides)
Summary of the method: as §1

[12] = tested on: lambsquarters (Chenopodium album)
Summary of the method: as §1

[13] = tested on: crabgrass, large (large crabgrass, Digitaria sanguinalis)
Summary of the method: as §1

corn (Zea mays) = tested on: corn (Zea mays)
Summary of the method: as §1

[14] = tested on: velvetleaf (Abutilon theophrasti)
Summary of the method: as §1

[15] = Preemergence, 31 g ai/ha, scale 0 to 100, 0 is no effect, 100 is complete control
[16] = Preemergence, 62 g ai/ha, scale 0 to 100, 0 is no effect, 100 is complete control
[17] = Preemergence, 125 g ai/ha, scale 0 to 100, 0 is no effect, 100 is complete control
[18] = Preemergence, 250 g ai/ha, scale 0 to 100, 0 no effect, 100 complete control
[19] = Postemergence, 31 g ai/ha, scale 0 to 100 (0 no effect, 100 complete control)
[20] = Postemergence, 62 g ai/ha, 0 to 100 scale (0 no effect, 100 complete control)
[21] = Postemergence, 250 g ai/ha, scale 0 to 100, 0 no effect, 100 complete control, 13 to 15 d
[22] = postemergence, 125 g ai/ha, scale 0 to 100, 0 no effect, 100 complete control

SMILES: CCC(=O)Oc1c(OC)nn(C)c(=O)c1-c1c(C)sc2ccc(Cl)cc12 [Compound 131]
- Plant response rating, Wheat [1, 15]: 0
- Plant response rating, Wheat [1, 16]: 0
- Plant response rating, Wheat [1, 17]: 20
- Wheat plant response rating [1, 18]: 20
- Plant response rating, Morningglory [2, 15]: 35
- Plant response rating, Morningglory [2, 16]: 55
- Plant response rating, Morningglory [2, 17]: 85
- Morningglory plant response rating [2, 18]: 95
- Plant response rating, Ryegrass, Italian [3, 15]: 10
- Plant response rating, Ryegrass, Italian [3, 16]: 80
- Plant response rating, Ryegrass, Italian [3, 17]: 95
- Ryegrass, Italian plant response rating [3, 18]: 95
- Plant response rating, Pigweed [4, 15]: 60
- Plant response rating, Pigweed [4, 16]: 100
- Plant response rating, Pigweed [4, 17]: 100
- Pigweed plant response rating [4, 18]: 100
- Plant response rating, Foxtail, Giant [5, 15]: 35
- Plant response rating, Foxtail, Giant [5, 16]: 85
- Plant response rating, Foxtail, Giant [5, 17]: 90
- Foxtail, Giant plant response rating [5, 18]: 98
- Plant response rating, Ragweed [6, 15]: 65
- Plant response rating, Ragweed [6, 16]: 95
- Plant response rating, Ragweed [6, 17]: 98
- Ragweed plant response rating [6, 18]: 98
- Plant response rating, Waterhemp [7, 15]: 95
- Plant response rating, Waterhemp [7, 16]: 98
- Plant response rating, Waterhemp [7, 17]: 98
- Waterhemp plant response rating [7, 18]: 100
- Plant response rating, Galium [8, 15]: 85
- Plant response rating, Galium [8, 16]: 90
- Plant response rating, Galium [8, 17]: 95
- Galium plant response rating [8, 18]: 95
- Plant response rating, Oilseed Rape [9, 15]: 20
- Plant response rating, Oilseed Rape [9, 16]: 40
- Plant response rating, Oilseed Rape [9, 17]: 85
- Oilseed Rape plant response rating [9, 18]: 80
- Plant response rating, Barnyardgrass [10, 15]: 0
- Plant response rating, Barnyardgrass [10, 16]: 0
- Plant response rating, Barnyardgrass [10, 17]: 10
- Barnyardgrass plant response rating [10, 18]: 35
- Plant response rating, Blackgrass [11, 15]: 0
- Plant response rating, Blackgrass [11, 16]: 40
- Plant response rating, Blackgrass [11, 17]: 40
- Blackgrass plant response rating [11, 18]: 90
- Plant response rating, Lambsquarters [12, 15]: 60
- Plant response rating, Lambsquarters [12, 16]: 70
- Plant response rating, Lambsquarters [12, 17]: 85
- Lambsquarters plant response rating [12, 18]: 95
- Plant response rating, Crabgrass, Large [13, 15]: 0
- Plant response rating, Crabgrass, Large [13, 16]: 20
- Plant response rating, Crabgrass, Large [13, 17]: 60
- Crabgrass, Large plant response rating [13, 18]: 80
- Plant response rating, Corn (corn (Zea mays); [15]): 0
- Plant response rating, Corn (corn (Zea mays); [16]): 0
- Plant response rating, Corn (corn (Zea mays); [17]): 5
- Corn plant response rating (corn (Zea mays); [18]): 15
- Plant response rating, Velvetleaf [14, 15]: 0
- Plant response rating, Velvetleaf [14, 16]: 55
- Plant response rating, Velvetleaf [14, 17]: 85
- Velvetleaf plant response rating [14, 18]: 95

SMILES: CC(=O)Oc1c(C)nn(C)c(=O)c1-c1c(C)sc2ccc(C(F)(F)F)cc12 [Compound 132]
- Plant response rating, Wheat [1, 19]: 0
- Wheat plant response rating [1, 20]: 0
- Plant response rating, Wheat [1, 21]: 0
- Plant response rating, Wheat [1, 15]: 25
- Plant response rating, Wheat [1, 16]: 40
- Plant response rating, Wheat [1, 17]: 20
- Wheat plant response rating [1, 18]: 50
- Wheat plant response rating [1, 22]: 0
- Plant response rating, Morningglory [2, 19]: 65
- Morningglory plant response rating [2, 20]: 80
- Plant response rating, Morningglory [2, 21]: 98
- Plant response rating, Morningglory [2, 15]: 40
- Plant response rating, Morningglory [2, 16]: 65
- Plant response rating, Morningglory [2, 17]: 95
- Morningglory plant response rating [2, 18]: 90
- Morningglory plant response rating [2, 22]: 95
- Plant response rating, Ryegrass, Italian [3, 19]: 80
- Ryegrass, Italian plant response rating [3, 20]: 85
- Plant response rating, Ryegrass, Italian [3, 21]: 95
- Plant response rating, Ryegrass, Italian [3, 15]: 45
- Plant response rating, Ryegrass, Italian [3, 16]: 90
- Plant response rating, Ryegrass, Italian [3, 17]: 95
- Ryegrass, Italian plant response rating [3, 18]: 95
- Ryegrass, Italian plant response rating [3, 22]: 95
- Plant response rating, Pigweed [4, 19]: 50
- Pigweed plant response rating [4, 20]: 55
- Plant response rating, Pigweed [4, 21]: 65
- Plant response rating, Pigweed [4, 15]: 100
- Plant response rating, Pigweed [4, 16]: 100
- Plant response rating, Pigweed [4, 17]: 100
- Pigweed plant response rating [4, 18]: 100
- Pigweed plant response rating [4, 22]: 70
- Plant response rating, Foxtail, Giant [5, 19]: 30
- Foxtail, Giant plant response rating [5, 20]: 40
- Plant response rating, Foxtail, Giant [5, 21]: 75
- Plant response rating, Foxtail, Giant [5, 15]: 40
- Plant response rating, Foxtail, Giant [5, 16]: 70
- Plant response rating, Foxtail, Giant [5, 17]: 85
- Foxtail, Giant plant response rating [5, 18]: 98
- Foxtail, Giant plant response rating [5, 22]: 60
- Plant response rating, Ragweed [6, 19]: 65
- Ragweed plant response rating [6, 20]: 95
- Plant response rating, Ragweed [6, 21]: 98
- Plant response rating, Ragweed [6, 15]: 70
- Plant response rating, Ragweed [6, 16]: 85
- Plant response rating, Ragweed [6, 17]: 95
- Ragweed plant response rating [6, 18]: 100
- Ragweed plant response rating [6, 22]: 95
- Plant response rating, Waterhemp [7, 19]: 40
- Waterhemp plant response rating [7, 20]: 60
- Plant response rating, Waterhemp [7, 21]: 75
- Plant response rating, Waterhemp [7, 15]: 90
- Plant response rating, Waterhemp [7, 16]: 85
- Plant response rating, Waterhemp [7, 17]: 95
- Waterhemp plant response rating [7, 18]: 98
- Waterhemp plant response rating [7, 22]: 80
- Plant response rating, Galium [8, 19]: 90
- Galium plant response rating [8, 20]: 95
- Plant response rating, Galium [8, 21]: 95
- Plant response rating, Galium [8, 15]: 90
- Plant response rating, Galium [8, 16]: 90
- Plant response rating, Galium [8, 17]: 90
- Galium plant response rating [8, 18]: 98
- Galium plant response rating [8, 22]: 95
- Plant response rating, Oilseed Rape [9, 19]: 5
- Oilseed Rape plant response rating [9, 20]: 10
- Plant response rating, Oilseed Rape [9, 21]: 40
- Plant response rating, Oilseed Rape [9, 15]: 70
- Plant response rating, Oilseed Rape [9, 16]: 85
- Plant response rating, Oilseed Rape [9, 17]: 30
- Oilseed Rape plant response rating [9, 18]: 90
- Oilseed Rape plant response rating [9, 22]: 5
- Plant response rating, Barnyardgrass [10, 19]: 15
- Barnyardgrass plant response rating [10, 20]: 30
- Plant response rating, Barnyardgrass ([10]; Postemergence, 125 g ai/ha, scale 0 to 100, 0 is no effect, 100 is complete control): 25
- Plant response rating, Barnyardgrass [10, 21]: 25
- Plant response rating, Barnyardgrass [10, 15]: 0
- Plant response rating, Barnyardgrass [10, 16]: 5
- Plant response rating, Barnyardgrass [10, 17]: 35
- Barnyardgrass plant response rating [10, 18]: 45
- Plant response rating, Blackgrass [11, 19]: 5
- Blackgrass plant response rating [11, 20]: 5
- Plant response rating, Blackgrass [11, 21]: 45
- Plant response rating, Blackgrass [11, 15]: 20
- Plant response rating, Blackgrass [11, 16]: 45
- Plant response rating, Blackgrass [11, 17]: 40
- Blackgrass plant response rating [11, 18]: 50
- Blackgrass plant response rating [11, 22]: 25
- Plant response rating, Lambsquarters [12, 19]: 90
- Lambsquarters plant response rating [12, 20]: 90
- Plant response rating, Lambsquarters [12, 21]: 100
- Plant response rating, Lambsquarters [12, 15]: 50
- Plant response rating, Lambsquarters [12, 16]: 60
- Plant response rating, Lambsquarters [12, 17]: 85
- Lambsquarters plant response rating [12, 18]: 100
- Lambsquarters plant response rating [12, 22]: 100
- Plant response rating, Crabgrass, Large [13, 19]: 15
- Crabgrass, Large plant response rating [13, 20]: 15
- Plant response rating, Crabgrass, Large [13, 21]: 25
- Plant response rating, Crabgrass, Large [13, 15]: 0
- Plant response rating, Crabgrass, Large [13, 16]: 0
- Plant response rating, Crabgrass, Large [13, 17]: 10
- Crabgrass, Large plant response rating [13, 18]: 40
- Crabgrass, Large plant response rating [13, 22]: 10
- Plant response rating, Corn (corn (Zea mays); [19]): 0
- Corn plant response rating (corn (Zea mays); [20]): 5
- Plant response rating, Corn (corn (Zea mays); [21]): 10
- Plant response rating, Corn (corn (Zea mays); [15]): 0
- Plant response rating, Corn (corn (Zea mays); [16]): 0
- Plant response rating, Corn (corn (Zea mays); [17]): 0
- Corn plant response rating (corn (Zea mays); [18]): 10
- Corn plant response rating (corn (Zea mays); [22]): 5
- Plant response rating, Velvetleaf [14, 19]: 30
- Velvetleaf plant response rating [14, 20]: 40
- Plant response rating, Velvetleaf [14, 21]: 75
- Plant response rating, Velvetleaf [14, 15]: 60
- Plant response rating, Velvetleaf [14, 16]: 60
- Plant response rating, Velvetleaf [14, 17]: 90
- Velvetleaf plant response rating [14, 18]: 95
- Velvetleaf plant response rating [14, 22]: 65
